US20250195508A1, “COMPOUNDS AND COMPOSITIONS FOR ANITMALARIAL THERAPEUTIC AND PROPHYLACTIC USE” (UNIVERSITY OF CENTRAL FLORIDA RESEARCH FOUNDATION, INC., priority 2022, published 2025)

How the values were obtained:
[1] = test system: P. falciparum Dd2; test: 72 h SYBR Green I assay (Dd2 Proliferation Assay); format: cell-based; details: Plasmodium falciparum, DD2; SYBR Green I assay; Table 4; read-out: PfDd2 EC50 (nM) ± SD
Procedure: (§1) Several analogs were synthesized based on the structure of TL5-135 for further study. […] For the data in Table 1, compounds were subjected to in vitro biochemical kinase assays done using recombinant human ephrin type-A receptor 2 (EPHA2) (expressed in insect cells) in a Z′-LYTE® FRET-based kinase assay. P. falciparum Dd2 EC50 was determined using the standard 72 hour SYBR Green I assay (Dd2 Proliferation Assay) as known in the art. […] The structures of compoundsTL5-134, TL5-139, and TL5-145 are shown below.
(§2) In vitro biochemical kinase assays were done using recombinant human EPHA2 (expressed in insect cells) in a Z′-LYTE® FRET-based kinase assay. P. falciparum Dd2 EC50 was determined using the standard 72 h SYBR Green I assay.
Asynchronous blood stage P. falciparum Dd2 cultures were plated at 1% parasitemia and 1% hematocrit in a 96-well plate and incubated with serial dilutions of compound for 72 hours at 37° C. in 5% CO2. DMSO concentrations were kept at a sub-lethal percentage (<0.2%). Five micromolar chloroquine was used as a negative parasite growth control. Plates were then frozen at −80° C. and thawed, and 100 μL SYBR Green I-containing lysis buffer (20 mM Tris-HCl, 5 mM EDTA, 0.8% Triton X-100, 0.08% saponin, and 0.0001% SYBR Green I) was added to the wells. After incubation for 45 minutes at room temperature protected from light, fluorescence emission was read with a multimode microplate reader, at 485 nm excitation and 530 nm emission. Results were normalized using untreated and chloroquine-treated controls, and EC50 was determined with CDD Vault.
To establish the utility of kinase inhibitor compounds synthesized in the Gray laboratory as a source of novel antimalarial activities, the libraries (containing 1,100 compounds) were screened using the well-established SYBR Green I-based fluorescence assay as known in the art. This screen yielded 34 compounds with EC50<500 nM in the CQ^R Dd2 strain. These hits were subjected to counter-screening against human HepG2 cells using CellTiter 96® AQueous (Promega™) MTS-based cell proliferation assay to identify asexual and liver stage antiplasmodial hits.
P. falciparum Dd2 EC50 was determined using SYBR Green I assay. For the selectivity index ([…]) cytotoxicity was determined using CellTiter 96® AQueous MTS. The liver stage assay was performed using P. berghei luciferase expressing parasites. All assays were performed with technical quadruplicates and 3 biological replicates. Assays have a Z′ factor >0.7.

[2] = biological target: recombinant human EPHA2 (Homo sapiens (Human), UniProt P29317); test: Z′-LYTE FRET-based in vitro biochemical kinase assay; details: recombinant human EPHA2 expressed in insect cells; read-out: Human EPHA2 IC50 (nM) ± SD
Sequence of recombinant human EPHA2 (P29317 24-976): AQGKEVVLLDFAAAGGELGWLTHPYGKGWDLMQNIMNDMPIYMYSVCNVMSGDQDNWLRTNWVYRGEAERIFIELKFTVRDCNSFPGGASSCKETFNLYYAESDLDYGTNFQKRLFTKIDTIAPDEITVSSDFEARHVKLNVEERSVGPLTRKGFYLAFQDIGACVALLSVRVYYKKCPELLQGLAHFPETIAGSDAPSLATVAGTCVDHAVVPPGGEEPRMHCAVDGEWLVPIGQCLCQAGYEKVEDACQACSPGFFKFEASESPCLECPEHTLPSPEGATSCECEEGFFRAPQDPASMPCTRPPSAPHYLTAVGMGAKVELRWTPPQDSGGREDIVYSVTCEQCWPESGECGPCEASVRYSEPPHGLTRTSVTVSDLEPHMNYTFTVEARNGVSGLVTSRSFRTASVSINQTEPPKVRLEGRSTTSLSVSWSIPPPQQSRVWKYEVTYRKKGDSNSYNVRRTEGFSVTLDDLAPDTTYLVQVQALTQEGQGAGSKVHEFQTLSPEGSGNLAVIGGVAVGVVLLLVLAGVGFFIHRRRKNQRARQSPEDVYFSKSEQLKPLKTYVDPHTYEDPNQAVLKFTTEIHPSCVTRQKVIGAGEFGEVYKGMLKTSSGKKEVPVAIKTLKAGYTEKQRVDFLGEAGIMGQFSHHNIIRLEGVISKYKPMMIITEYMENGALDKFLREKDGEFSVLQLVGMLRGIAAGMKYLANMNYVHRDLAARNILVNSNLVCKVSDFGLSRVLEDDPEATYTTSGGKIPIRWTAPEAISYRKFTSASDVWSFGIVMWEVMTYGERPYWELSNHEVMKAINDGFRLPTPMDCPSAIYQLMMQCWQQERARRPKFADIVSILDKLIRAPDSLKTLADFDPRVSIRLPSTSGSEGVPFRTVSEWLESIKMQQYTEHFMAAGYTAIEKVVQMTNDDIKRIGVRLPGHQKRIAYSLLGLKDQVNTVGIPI
Procedure: as §1, §2

Structure (SMILES): CCN1CCN(Cc2ccc(NC(=O)c3cc(Cl)cc(NC(=O)c4cncc(-c5cccs5)c4)c3)cc2C(F)(F)F)CC1 [TL5-135]
- EC50 [1]: 80 ± 8 nM
- IC50 [2]: > 10000 nM
